{"source": "patent US20180153995A1", "about": "“USE OF ANTIMICROBIAL POLYMERS FOR RE-SENSITIZATION OF MICROORGANISMS UPON EMERGENCE OF RESISTANCE TO ANTI-MICROBIAL AGENTS” (Technion Research & Development Foundation Limited, priority 2008, published 2018)", "key": {"MRSA 15903": {"system": "MRSA 15903", "assay": "microbe, parasite or virus in culture", "type": "cell-based, Staphylococcus aureus", "in_short": "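Two-agent combinations tested against MRSA 15903; FIC index = A/MICA + B/MICB, using MICs in combination versus alone. Below 0.5 read as clear re-sensitizing, 0.5–4 marginal or null, above 4 antagonism.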"}, "S. aureus 43300": {"system": "S. aureus 43300", "assay": "Antibiotic MIC by microdilution with or without sub-MIC polymer", "type": "cell-based, Staphylococcus aureus", "procedure": "MICs were determined by microdilution susceptibility testing in 96-well plates (by Nunc) using inocula of 10^5 bacteria per ml. Cell populations were evaluated by optical density measurements at 620 nm and were calibrated against a set of standards. Hundred (100) μl of a bacterial suspension were added to 100 μl of culture medium (control) or to 100 μl of culture medium containing various polymer concentrations in 2-fold serial dilutions. Inhibition of proliferation was determined by optical density measurements at 620 nm after an incubation period of 24 hours at 37° C.\nTable 8 below presents the MIC values of antibiotics in presence or absence of C12(5-ene)KKNC12KNH2 (SEQ ID NO: 2) at sub-MIC levels of the polymer, as measured for the S. aureus strains 43300 (ATCC), 15819 (clinical isolate), 15877 (clinical isolate) and 15852 (clinical isolate). MICs were determined by microdilution susceptibility testing in 96-well plates (Nunc) using inocula of 10^5 bacteria per ml. One hundred (100) μl of a bacterial suspension were added to 100 μl of culture medium (control) or to 100 μl of culture medium containing various antibiotic and C12(5-ene)KKNC12KNH2 (SEQ ID NO: 2) concentrations in 2-fold serial dilutions. Inhibition of proliferation was determined by optical density measurements at 620 nm after an incubation period of 24 hours at 37° C.\n100 μl of a bacterial suspension were added to 100 μl of culture medium (control) or to 100 μl of culture medium containing various antibiotic and C14(9-ene)KKNC12KNH2 (SEQ ID NO: 5) concentrations in 2-fold serial dilutions. Inhibition of proliferation was determined by optical density measurements at 620 nm after an incubation period of 24 hours at 37° C."}, "S. aureus 15877": {"system": "S. aureus 15877", "assay": "Antibiotic MIC by microdilution with or without sub-MIC polymer", "type": "cell-based, Staphylococcus aureus"}, "S. aureus 17314": {"system": "S. aureus 17314", "assay": "Antibiotic MIC by microdilution with or without sub-MIC polymer", "type": "cell-based, Staphylococcus aureus"}, "E. coli 14384": {"system": "E. coli 14384", "assay": "Antibiotic MIC by microdilution with or without sub-MIC polymer", "type": "cell-based, Escherichia coli", "in_short": "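Broth microdilution, inoculum 10^5 bacteria/ml, 2-fold serial dilutions of polymer alone, or of antibiotic combined with […]. Growth inhibition read as OD620 after 24 h at 37° C, calibrated against standards.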"}, "E. coli 16327": {"system": "E. coli 16327", "assay": "microbe, parasite or virus in culture"}, "[1]": {"settings": "+½ MIC (3.12 μM) C12(5-ene)KKNC12KNH2"}}, "note": "Several values for one entry are separate records, joined by “and”; a condition that tells them apart may be missing. Identical values can stand only once. Like-named read-outs stand apart in the source and are kept apart here.", "data": [{"smiles": "CCN1CCN(C(=O)N[C@@H](C(=O)N[C@@H]2C(=O)N3[C@@H]2SC(C)(C)[C@@H]3C(=O)O)c2ccccc2)C(=O)C1=O", "note": "[Piperacillin, piperacillin]", "values": [{"measurement": "MIC", "setting": "MRSA 15903; MRSA 15903, +¼ polymer MIC (1.6 μM) NC12(KNC12K)2NH2", "result": 64, "unit": "µg/mL"}, {"measurement": "MIC", "setting": "MRSA 15903; MRSA 15903, +½ polymer MIC (3.1 μM) NC12(KNC12K)2NH2", "result": 1, "unit": "µg/mL"}, {"measurement": "MIC", "setting": "MRSA 15903; MRSA 15903, +⅓ polymer MIC (2.1 μM) NC12(KNC12K)2NH2", "result": 4, "unit": "µg/mL"}, {"measurement": "MIC", "setting": "MRSA 15903; S. aureus CI-15903, +polymer (¼ MIC) C12(5-ene)KKNC12KNH2", "result": 32, "unit": "µg/mL"}, {"measurement": "MIC", "setting": "MRSA 15903; S. aureus CI-15903, +polymer (½ MIC) C12(5-ene)KKNC12KNH2", "result": 0.25, "unit": "µg/mL"}, {"measurement": "MIC", "setting": "MRSA 15903; S. aureus CI-15903, +polymer (⅓ MIC) C12(5-ene)KKNC12KNH2", "result": 4, "unit": "µg/mL"}, {"measurement": "MIC", "setting": "MRSA 15903; S. aureus CI-15903, alone", "result": 256, "unit": "µg/mL"}, {"measurement": "MIC", "setting": "MRSA 15903; Staphylococcus aureus, MRSA, 24 h", "result": 256, "unit": "µg/mL"}, {"measurement": "Antibiotic MIC", "setting": "S. aureus 43300; +¼ MIC (1.6 μM) C14(9-ene)KKNC12KNH2", "result": 16, "unit": "µg/mL"}, {"measurement": "Antibiotic MIC", "setting": "S. aureus 43300; [1]", "result": 1, "unit": "µg/mL"}, {"measurement": "Antibiotic MIC", "setting": "S. aureus 43300; +½ MIC (3.12 μM) C14(9-ene)KKNC12KNH2", "result": 16, "unit": "µg/mL"}, {"measurement": "Antibiotic MIC", "setting": "S. aureus 43300; +⅓ MIC (2.1 μM) C14(9-ene)KKNC12KNH2", "result": 16, "unit": "µg/mL"}, {"measurement": "Antibiotic MIC", "setting": "S. aureus 43300; no polymer (None), Table 8", "result": 16, "unit": "µg/mL"}, {"measurement": "Antibiotic MIC", "setting": "S. aureus 43300; no polymer (None), Table 9", "result": 16, "unit": "µg/mL"}, {"measurement": "Antibiotic MIC", "setting": "S. aureus 43300; no polymer (None), Table 10", "result": 16, "unit": "µg/mL"}, {"measurement": "Antibiotic MIC", "setting": "S. aureus 43300; no polymer (None), Table 11", "result": 32, "unit": "µg/mL"}, {"measurement": "Antibiotic MIC", "setting": "S. aureus 43300; no polymer (None), Table 12", "result": 32, "unit": "µg/mL"}, {"measurement": "Antibiotic MIC", "setting": "S. aureus 15877; +¼ MIC (1.6 μM) C12(5-ene)KKNC12KNH2", "result": "16 to 32", "unit": "µg/mL"}, {"measurement": "Antibiotic MIC", "setting": "S. aureus 15877; [1]", "result": "8 to 16", "unit": "µg/mL"}, {"measurement": "Antibiotic MIC", "setting": "S. aureus 15877; +⅓ MIC (2.1 μM) C12(5-ene)KKNC12KNH2", "result": "16 to 32", "unit": "µg/mL"}, {"measurement": "Antibiotic MIC", "setting": "S. aureus 15877; no polymer (None), Table 8", "result": "16 to 32", "unit": "µg/mL"}, {"measurement": "Antibiotic MIC", "setting": "S. aureus 17314", "result": 128, "unit": "µg/mL"}, {"measurement": "Antibiotic MIC", "setting": "S. aureus 17314; S. aureus 17314, +¼ MIC (1.6 μM) C12K(KNC12K)2NH2", "result": 128, "unit": "µg/mL"}, {"measurement": "Antibiotic MIC", "setting": "S. aureus 17314; S. aureus 17314, +¼ MIC (1.6 μM) C14(9-ene)KKNC12KNH2", "result": 32, "unit": "µg/mL"}, {"measurement": "Antibiotic MIC", "setting": "S. aureus 17314; S. aureus 17314, +¼ MIC (1.6 μM) C16(9-ene)KKNC12KNH2", "result": 4, "unit": "µg/mL"}, {"measurement": "Antibiotic MIC", "setting": "S. aureus 17314; S. aureus 17314, +½ MIC (3.12 μM) C12K(KNC12K)2NH2", "result": 64, "unit": "µg/mL"}, {"measurement": "Antibiotic MIC", "setting": "S. aureus 17314; S. aureus 17314, +½ MIC (3.12 μM) C12KKNC12KNH2", "result": 64, "unit": "µg/mL"}, {"measurement": "Antibiotic MIC", "setting": "S. aureus 17314; S. aureus 17314, +½ MIC (3.12 μM) C14(9-ene)KKNC12KNH2", "result": 32, "unit": "µg/mL"}, {"measurement": "Antibiotic MIC", "setting": "S. aureus 17314; S. aureus 17314, +½ MIC (3.12 μM) C16(9-ene)KKNC12KNH2", "result": 1, "unit": "µg/mL"}, {"measurement": "Antibiotic MIC", "setting": "S. aureus 17314; S. aureus 17314, +⅓ MIC (2.1 μM) C12K(KNC12K)2NH2", "result": 128, "unit": "µg/mL"}, {"measurement": "Antibiotic MIC", "setting": "S. aureus 17314; S. aureus 17314, +⅓ MIC (2.1 μM) C14(9-ene)KKNC12KNH2", "result": 32, "unit": "µg/mL"}, {"measurement": "Antibiotic MIC", "setting": "S. aureus 17314; S. aureus 17314, +⅓ MIC (2.1 μM) C16(9-ene)KKNC12KNH2", "result": 2, "unit": "µg/mL"}, {"measurement": "Antibiotic MIC", "setting": "S. aureus 17314; S. aureus 17314, no polymer (None), Table 9", "result": 32, "unit": "µg/mL"}, {"measurement": "Antibiotic MIC", "setting": "S. aureus 17314; S. aureus 17314, no polymer (None), Table 10", "result": 8, "unit": "µg/mL"}, {"measurement": "Antibiotic MIC", "setting": "S. aureus 17314; S. aureus 17314, no polymer (None), Table 11", "result": 128, "unit": "µg/mL"}, {"measurement": "Antibiotic MIC", "setting": "S. aureus 17314; S. aureus 17314, no polymer (None), Table 12", "result": 128, "unit": "µg/mL"}, {"measurement": "Antibiotic MIC", "setting": "E. coli 14384", "result": "256 µg/mL and 256 to 512 µg/mL"}, {"measurement": "Antibiotic MIC", "setting": "E. coli 14384; E. coli 14384, +½ MIC C12K(NC8K)5NH2", "result": "256 to 512", "unit": "µg/mL"}, {"measurement": "Antibiotic MIC, None", "setting": "E. coli 14384; E. coli 14384, antibiotic alone (Table 15)", "result": "256 to 512", "unit": "µg/mL"}, {"measurement": "Antibiotic MIC", "setting": "E. coli 14384; E. coli 14384, no polymer (None), Table 9", "result": "256 to 512", "unit": "µg/mL"}, {"measurement": "Antibiotic MIC", "setting": "E. coli 14384; E. coli 14384, no polymer (None), Table 14", "result": "256 to 512", "unit": "µg/mL"}, {"measurement": "Antibiotic MIC in presence of C12K(NC8K)7NH2 (SEQ ID NO: 4), +¼ MIC", "setting": "E. coli 14384; E. coli 14384, polymer at ¼ of its MIC", "result": "256 to 512", "unit": "µg/mL"}, {"measurement": "Antibiotic MIC in presence of C12K(NC8K)7NH2 (SEQ ID NO: 4), +½ MIC", "setting": "E. coli 14384; E. coli 14384, polymer at ½ of its MIC", "result": "64 to 128", "unit": "µg/mL"}, {"measurement": "Antibiotic MIC in presence of C12K(NC8K)7NH2 (SEQ ID NO: 4), +⅓ MIC", "setting": "E. coli 14384; E. coli 14384, polymer at ⅓ of its MIC", "result": "256 to 512", "unit": "µg/mL"}, {"measurement": "Antibiotic MIC", "setting": "E. coli 16327", "result": "128 µg/mL and 256 µg/mL"}, {"measurement": "Antibiotic MIC", "setting": "E. coli 16327; E. coli 16327, +¼ MIC (1.6 μM) C12K(KNC12K)2NH2", "result": 256, "unit": "µg/mL"}]}]}
